Source: the supplement of paper PMC11061612

How the values were obtained:
HOS (Osteosarcoma) [1] = assay: Bliss excess, mean over the matrix (fraction); higher = more synergy
Method in brief: (§1)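 Cell lines grown in DMEM/F12 or RPMI with 10% FBS were plated in 1536-well plates and held 24 hours at 37°C, 5% CO2 before 72 hours of exposure to two-drug dose matrices, with DMSO typically at 0.2%. CellTiter-Glo 2.0 luminescence gave viability, which was converted to inhibition. Vehicle wells were set to 0 and blank wells to 1. Combination Emax is the second-highest inhibition in the matrix, and Bliss excess is the observed combination effect minus the expected EA + EB − EA·EB, where EA and EB are the single-agent effects.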

[2] = test system: HT-1376 (Bladder Carcinoma); assay: as above
Method in brief: as §1

[3] = test system: KURAMOCHI (Ovarian Carcinoma); assay: as above
Method in brief: as §1

T98G (Glioblastoma) [4] = assay: as above
Method in brief: as §1

[5] = test system: CCRF-CEM (T-Lymphoblastic Leukemia); assay: combination Emax (second highest fraction inhibited in the dose matrix, 72 h); higher = more inhibition; extreme values may be limits of the assay
Method in brief: as §1

[6] = test system: DoTc2-4510 (Cervical Carcinoma); assay: as above
Method in brief: as §1

[7] = test system: HO-1-N-1 (Oral Cavity Carcinoma); assay: as above
Method in brief: as §1

HOS (Osteosarcoma) [8] = assay: as above
Method in brief: as §1

[9] = test system: HT-1376 (Bladder Carcinoma); assay: as above
Method in brief: as §1

[10] = test system: Hs-578-T (Breast Carcinoma); assay: as above
Method in brief: as §1

[11] = test system: LB831-BLC (Bladder Carcinoma); assay: as above
Method in brief: as §1

[12] = test system: LS-180 (Colorectal Carcinoma); assay: as above
Method in brief: as §1

NB10 (Neuroblastoma) = assay: as above
Method in brief: as §1

[13] = test system: NCI-H2085 (Non-Small Cell Lung Carcinoma); assay: as above
Method in brief: as §1

[14] = test system: NCI-H82 (Small Cell Lung Carcinoma); assay: as above
Method in brief: as §1

[15] = test system: RO82-W-1 (Thyroid Gland Carcinoma); assay: as above
Method in brief: as §1

T98G (Glioblastoma) [16] = assay: as above
Method in brief: as §1

[17] = test system: TE-15 (Esophageal Squamous Cell Carcinoma); assay: as above
Method in brief: as §1

[18] = test system: TE-9 (Esophageal Squamous Cell Carcinoma); assay: as above
Method in brief: as §1

[19] = test system: UM-UC-3 (Bladder Carcinoma); assay: as above
Method in brief: as §1
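Wherever Bliss excess, mean over the matrix is given: after 72 h of two-drug dosing.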

Structure (SMILES)	Bliss excess (HOS (Osteosarcoma) [1])	Bliss excess [2]	Bliss excess [3]	Bliss excess (T98G (Glioblastoma) [4])	combination Emax [5]	combination Emax [6]	combination Emax [7]	combination Emax (HOS (Osteosarcoma) [8])	combination Emax [9]	combination Emax [10]	combination Emax [11]	combination Emax [12]	combination Emax (NB10 (Neuroblastoma))	combination Emax [13]	combination Emax [14]	combination Emax [15]	combination Emax (T98G (Glioblastoma) [16])	combination Emax [17]	combination Emax [18]	combination Emax [19]
O=C(c1cc(Cc2n[nH]c(=O)c3ccccc23)ccc1F)N1CCN(C(=O)C2CC2)CC1 [Olaparib] + CN(CC[C@H](CSC1=CC=CC=C1)NC2=C(C=C(C=C2)S(=O)(=O)NC(=O)C3=CC=C(C=C3)N4CCC(CC4)[C@H](C5=CC=CC=C5C6=CC=C(C=C6)Cl)O)S(=O)(=O)C(F)(F)F)CCO [AZD4320] (first compound max 10 µM, 7x7, partner max 1 µM)	0.0192	-0.0572	-0.0414	0.0008	0.986	0.668	0.352	0.277	0.215	0.62	0.409	0.227	0.389	0.289	0.382	0.546	0.251	0.22	0.321	0.188
Cc1c2c(nn1C)CSCc1cc(n(C)n1)CSc1cc(c3ccccc3c1)OCCCc1c(C(=O)O)n(C)c3c-2c(Cl)ccc13 [AZD5991] + CS(=O)(=O)CCNCc1ccc(-c2ccc3ncnc(Nc4ccc(OCc5cccc(F)c5)c(Cl)c4)c3c2)o1 [Lapatinib] (first compound max 1 µM, 7x7, partner max 10 µM)	-0.0365	-0.0102	-0.012	-0.0233	0.594	0.549	0.962	0.303	0.33	0.833	0.55	0.482	0.177	0.47	0.963	0.141	0.412	0.764	0.193	0.169
N#Cc1cnc(Nc2cc(NC[C@H]3CNCCO3)c(C(F)(F)F)cn2)cn1 [SRA737] + O=c1[nH]cc(F)c(=O)[nH]1 [5-Fluorouracil] (first compound max 10 µM, 7x7, partner max 20 µM)	0.0248	-0.0591	-0.0351	-0.0277	0.99	0.231	0.473	0.435	0.175	0.612	0.34	0.568	0.53	0.501	0.816	0.144	0.837	0.705	0.469	0.208
C[C@@H]1COCCN1c1cc(C2([S@](C)(=N)=O)CC2)nc(-c2ccnc3[nH]ccc23)n1 [AZD6738] + C1CC(C1)(C(=O)[O-])C(=O)[O-].N.N.[Pt+2] [Carboplatin] (first compound max 10 µM, 7x7, partner max 10 µM)	-0.0209	-0.039	0.0222	-0.0401	0.977	0.492	0.779	0.668	0.454	0.69	0.39	0.7	0.689	0.381	0.823	0.151	0.886	0.857	0.264	0.398
Cc1c2c(nn1C)CSCc1cc(n(C)n1)CSc1cc(c3ccccc3c1)OCCCc1c(C(=O)O)n(C)c3c-2c(Cl)ccc13 [AZD5991] + Nc1ccn([C@@H]2O[C@H](CO)[C@@H](O)C2(F)F)c(=O)n1 [Gemcitabine] (first compound max 1 µM, 7x7, partner max 0.3 µM)	0.0054	-0.03	0.0117	0.0127	0.987	0.544	0.994	0.823	0.215	0.663	0.677	0.779	0.778	0.203	0.972	0.0885	0.5	0.931	0.343	0.832
Cc1cc2ncnn2cc1Nc1ncc2c(n1)n(C1CCOCC1)c(=O)n2C [AZD7648] + COc1cc([C@@H]2c3cc4c(cc3[C@@H](O[C@@H]3O[C@@H]5CO[C@@H](C)O[C@H]5[C@H](O)[C@H]3O)[C@H]3COC(=O)[C@H]23)OCO4)cc(OC)c1O [Etoposide] (first compound max 10 µM, 7x7, partner max 10 µM)	0.0772	-0.0021	0.0716	0.12	1	0.721	0.987	0.879	0.515	0.662	0.836	0.729	0.872	0.434	0.848	0.288	0.741	0.835	0.287	0.875
